According to patent US20240033207A1, “TOPICALLY ADMINISTRABLE LYSATE (LY) OF DEDIFFERENTIATED CELLS OF THE PLANT HELICHRYSUM STOECHAS FOR ELIMINATING OR REDUCING INFLAMMATION OF THE SKIN” (SOCIETE D'EXPLOITATION DE PRODUITS POUR LES INDUSTRIES …, priority 2020, published 2024):
Marks after values point to notes of the source that are not given here.

Test system: normal human keratinocytes (NHEK) cocultured with dendritic cells (DC)
Experiment: Coculture of primary human keratinocytes with dendritic cells, PMA/A23187/PUFA stimulation, lipid mediators in supernatant by LC-MS/MS
Type: cell-based
Source text: Dendritic cells form part of the cells of the cutaneous immune system, and they are involved in the early inflammatory response. This model is targeted at mimicking the interactions which take place naturally in the skin between the keratinocytes and the cells of the immune system, and it makes it possible to evaluate the impact of active principles on the processes of resolution of inflammation. Briefly, normal human keratinocytes (NHEK) are inoculated in inserts and cultured without contact with dendritic cells (DC) inoculated in the bottom of the wells. The cells are pretreated with the composition CA or glycerol. After 20 hours of incubation, the inflammatory stimulus (mixture of phorbol 12-myristate 13-acetate (PMA) and of calcium ionophore A23187), polyunsaturated fatty acids (PUFAs, lipid precursors of inflammation mediators, eicosanoids) and the compounds (composition CA or glycerol) were again added and incubated for 1 hour. Subsequently, the culture supernatants were collected for analysis of lipid mediators. The experiments were replicated three times. […] The amounts of 5-HETE, LTB4, 12-HETE, 15-HETE and 17-HDOHE are measured by the use of an LC-MS/MS method using a UPLC system (Agilent LC1290 Infinity) coupled to an Agilent 6490 triple quadrupole mass spectrometer (Agilent Technologies) equipped with electrospray ionization operating in negative mode, and are expressed in picograms per culture well (pg/well). The values obtained were expressed as mean+/-sem [standard error of the mean=standard deviation/square root (number of values)]. For each condition, the percentages of activation were calculated as follows: % activation=[mean (condition)]/[mean (stimulated cells)]×100-100. • stimulated cells: PMA/A23187/PUFA-treated cells in the case where the condition studied is the treatment with glycerol. • stimulated cells: cells treated with PMA/A23187/PUFA+0.1% DMSO in the case where the condition studied is the treatment with the composition CA. The statistical analysis was carried out by a Student's test and a significance threshold was set at 5%, the conditions being compared in pairs. A difference between the effectiveness of two products was considered: • significant if p<0.05; • “at the limit of significance” if 0.05≤p<0.1; • and not significant if p>0.1.

[1] = 0.01%, PMA/A23187/PUFA-stimulated coculture supernatant, proresolving mediator
[2] = 0.01%, vs respective stimulated cells (PMA/A23187/PUFA for glycerol, + 0.1% DMSO for composition CA)
[3] = 0.05%, PMA/A23187/PUFA-stimulated NHEK/DC coculture supernatant, proinflammatory mediator
[4] = 0.05%, vs PMA/A23187/PUFA-treated cells

`OCC(O)CO` [Glycerol] was tested, and the “12-HETE (pg/well) Mean +/− SEM” value [1] was 15 +/− 1 pg/well, the “15-HETE (pg/well) Mean +/− SEM” value [1] was 273 +/− 26 pg/well and the “17-HDOHE (pg/well) Mean +/− SEM” value [1] was 16654 +/− 1409 pg/well. For the same molecule, the 12-HETE % activation [2] was 58%^15, the 15-HETE % activation [2] was 63%* and the 17-HDOHE % activation [2] was “+13%”. The “5-HETE (pg/well) Mean +/− SEM” value [3] was 1152 +/− 201 pg/well, the “LTB4 (pg/well) Mean +/− SEM” value [3] was 400 +/− 38 pg/well and the 5-HETE % activation [4] was 144%*. For the same molecule, the LTB4 % activation [4] was 88%*.
